Marks after values point to notes of the source that are not given here.
Legend:
male Fischer 344 rats [1] = assay: Six-hour urine protein content after a single i.p. dose; type: in vivo; conditions: i.p. in corn oil, mean ± SE, N = 3–4
male Fischer 344 rats [2] = assay: Blood urea nitrogen; type: in vivo; conditions: for Blood urea nitrogen: i.p. in corn oil, 24 h, mean ± SE, N = 3–4
male Fischer 344 rats [3] = assay: Liver weight 24 h after a single i.p. dose; type: in vivo; conditions: i.p. in corn oil, mean ± SE, N = 3–4
male Fischer 344 rats [4] = assay: Kidney histology; type: in vivo; conditions: all doses evaluated, i.p., 24 h, vs corn oil
male Fischer 344 rats [5] = assay: Serum alanine aminotransferase; type: in vivo; conditions: 24 h
male Fischer 344 rats [6] = assay: Clinical observation 24 h after dosing; type: in vivo, rat; conditions: 0.6 mmol/kg i.p., 24 h after dosing (sluggish movements and low body temperatures)
male Fischer 344 rats [7] = assay: Kidney weight 24 h after a single i.p. dose; type: in vivo; conditions: i.p. in corn oil, mean ± SE, N = 3–4
male Fischer 344 rats [8] = assay: Urine volume after a single i.p. dose; type: in vivo; conditions: i.p. in corn oil, mean ± SE, N = 3–4
male Fischer 344 rats [9] = assay: Liver histology; type: in vivo; conditions: 24 h
[10] = dose 0.2 (head mg/kg; text mmol/kg)
[11] = dose 0.4 (head mg/kg; text mmol/kg)
[12] = dose 0.6 (head mg/kg; text mmol/kg)

Structure (SMILES): O=C(O)CSC(=O)Nc1cc(Cl)cc(Cl)c1 [DCTA, [[[(3,5-dichlorophenyl)amino]carbonyl]thio]acetic acid]
- Six-hour urine protein content (male Fischer 344 rats [1]; [10]): 2.9 ± 0.9^b mg
- Six-hour urine protein content (male Fischer 344 rats [1]; [11]): 2.5 ± 0.4^b mg
- Six-hour urine protein content (male Fischer 344 rats [1]; [12]): 2.5 ± 1.1^b mg
- Increase in serum BUN concentrations (male Fischer 344 rats [2]; 0.4 and 0.6 mmol/kg, compared to corn oil and the 0.2 mmol/kg dose): about 3 fold
- Blood urea nitrogen (male Fischer 344 rats [2]; [10]): 21.0 ± 1.0^b mg/dl
- Blood urea nitrogen (male Fischer 344 rats [2]; [11]): 62.2 ± 11.2*,^c mg/dl
- Blood urea nitrogen (male Fischer 344 rats [2]; [12]): 67.8 ± 17.9*,^c mg/dl
- Liver weight (male Fischer 344 rats [3]; [10]): 3.58 ± 0.21^b g/100% BW
- Liver weight (male Fischer 344 rats [3]; [11]): 3.62 ± 0.05^b g/100% BW
- Liver weight (male Fischer 344 rats [3]; [12]): 3.46 ± 0.17^b g/100% BW
- Kidney morphology (male Fischer 344 rats [4]): did not exhibit obvious changes in kidney morphology
- ALT elevation compared to corn oil controls (male Fischer 344 rats [5]; 0.6 mmol/kg i.p.): about 2 fold
- Change in serum ALT levels (male Fischer 344 rats [5]; 0.2 and 0.4 mmol/kg i.p.): no changes were noted
- Clinical appearance (male Fischer 344 rats [6]): appeared to be moribund
- Kidney weight (male Fischer 344 rats [7]; [10]): 0.40 ± 0.01^b g/ 100% BW
- Kidney weight (male Fischer 344 rats [7]; [11]): 0.43 ± 0.01 *,^b,^c g/ 100% BW
- Kidney weight (male Fischer 344 rats [7]; [12]): 0.45 ± 0.01 *,^c g/ 100% BW
- Twenty-four-hour urine volume (male Fischer 344 rats [8]; [10]): 12.5 ± 3.8^b ml
- Twenty-four-hour urine volume (male Fischer 344 rats [8]; [11]): 13.1 ± 2.4^b ml
- Twenty-four-hour urine volume (male Fischer 344 rats [8]; [12]): 9.5 ± 5.0^b ml
- Liver morphology (male Fischer 344 rats [9]; 0.6 mmol/kg i.p.): nuclear condensation was apparent in some hepatocytes
- Liver morphology (male Fischer 344 rats [9]; 0.2 and 0.4 mmol/kg i.p.): did not produce any significant changes

Reference: publication PMC3175016 (Journal of applied toxicology : JAT, 2011)
